Measurements: ChEMBL document CHEMBL1806368 (Bioorg Med Chem Lett, 2011)
Converted amounts (≈) assume the structure as drawn.

Experiments:
[1] = Aqueous solubility of the compound at pH 7.4; assay type: physicochemical; conditions: buffer
[2] = Drug level in tumor in human U87MG cells xenografted mouse at 50 mg/kg, iv after 6 hrs; assay type: ADME, organism-based, Neoplasm, U-87MG ATCC; design: dose 50 mg/kg, route intravenous; conditions: read-out: Drug uptake
[3] = Drug level in tumor in human NCI-H1975 cell xenografted mouse at 25 mg/kg, iv after 24 hrs; assay type: ADME, organism-based, Neoplasm; design: dose 25 mg/kg, route intravenous; conditions: read-out: Drug uptake
[4] = AUC (0 to infinity) in CD1 mouse at 2 mg/kg, iv; assay type: ADME, organism-based; design: time infinity, dose 2 mg/kg, route intravenous; conditions: plasma
[5] = Plasma concentration in human U87MG cells xenografted mouse at 50 mg/kg, iv after 24 hrs; assay type: ADME, organism-based, U-87MG ATCC; design: dose 50 mg/kg, route intravenous
[6] = Drug level in tumor in human NCI-H1975 cell xenografted mouse at 25 mg/kg, iv after 6 hrs; assay type: ADME, organism-based, Neoplasm; design: dose 25 mg/kg, route intravenous; conditions: read-out: Drug uptake
[7] = Plasma concentration in human U87MG cells xenografted mouse at 50 mg/kg, po after 24 hrs; assay type: ADME, organism-based, U-87MG ATCC; design: dose 50 mg/kg, route oral
[8] = Tmax in CD1 mouse at 20 mg/kg, po; assay type: ADME, organism-based; design: dose 20 mg/kg, route oral; conditions: in vivo
[9] = Plasma concentration in human U87MG cells xenografted mouse at 50 mg/kg, po after 6 hrs; assay type: ADME, organism-based, U-87MG ATCC; design: dose 50 mg/kg, route oral
[10] = Cmax in CD1 mouse at 20 mg/kg, po; assay type: ADME, organism-based; design: dose 20 mg/kg, route oral; conditions: in vivo
[11] = Volume of distribution at steady state in CD1 mouse at 2 mg/kg, iv; assay type: ADME, organism-based; design: dose 2 mg/kg, route intravenous; conditions: in vivo, read-out: Vdss
[12] = AUC (0 to infinity) in CD1 mouse at 20 mg/kg, po; assay type: ADME, organism-based; design: time infinity, dose 20 mg/kg, route oral; conditions: plasma
[13] = Plasma concentration in human NCI-H1975 cell xenografted mouse at 25 mg/kg, iv after 6 hrs; assay type: ADME, organism-based; design: dose 25 mg/kg, route intravenous
[14] = Drug level in tumor in human U87MG cells xenografted mouse at 50 mg/kg, iv after 24 hrs; assay type: ADME, organism-based, Neoplasm, U-87MG ATCC; design: dose 50 mg/kg, route intravenous; conditions: read-out: Drug uptake
[15] = Drug level in tumor in human U87MG cells xenografted mouse at 50 mg/kg, po after 24 hrs; assay type: ADME, organism-based, Neoplasm, U-87MG ATCC; design: dose 50 mg/kg, route oral; conditions: read-out: Drug uptake
[16] = Plasma concentration in human U87MG cells xenografted mouse at 50 mg/kg, iv after 6 hrs; assay type: ADME, organism-based, U-87MG ATCC; design: dose 50 mg/kg, route intravenous
[17] = Plasma concentration in human NCI-H1975 cell xenografted mouse at 25 mg/kg, iv after 24 hrs; assay type: ADME, organism-based; design: dose 25 mg/kg, route intravenous
[18] = Bioavailability in CD1 mouse at 2 mg/kg, iv; assay type: ADME, organism-based; conditions: in vivo
[19] = Drug level in tumor in human U87MG cells xenografted mouse at 50 mg/kg, po after 6 hrs; assay type: ADME, organism-based, Neoplasm, U-87MG ATCC; design: dose 50 mg/kg, route oral; conditions: read-out: Drug uptake

Cc1c2c(n3c1CCCNC[C@H](C)Nc1cc-3ccc1C(N)=O)CC(C)(C)CC2=O
solubility ([1]; read-out: solubility): > 100 µg/mL

Cc1c2c(n3c1CCN(C(=O)[C@H](C)N)CC[C@H](C)Nc1cc-3ccc1C(N)=O)CC(C)(C)CC2=O
solubility ([1]; read-out: solubility): > 100 µg/mL

Cc1c2c(n3c1CCCN1CCC[C@H]1CNc1cc-3ccc1C(N)=O)CC(C)(C)CC2=O
solubility [1]: 2324 µg/mL (≈ 5350 µM)

Cc1c2c(n3c1CCN(C(=O)[C@@H]1C[C@H](F)CN1)C[C@@H](C)[C@H](C)Nc1cc-3ccc1C(N)=O)CC(C)(C)CC2=O
solubility ([1]; read-out: solubility): 100 µg/mL (≈ 186 µM)

CC(=O)N1CCc2c(C)c3c(n2-c2ccc(C(N)=O)c(c2)N[C@@H](C)[C@H](C)C1)CC(C)(C)CC3=O
solubility ([1]; read-out: solubility): 38 µg/mL (≈ 81.8 µM)

Cc1c2c(n3c1CCN(C(=O)CN)C[C@@H](C)[C@H](C)Nc1cc-3ccc1C(N)=O)CC(C)(C)CC2=O
solubility ([1]; read-out: solubility): 46 µg/mL (≈ 95.9 µM)

Cc1c2c(n3c1CCN(C(=O)[C@H](C)N)C[C@@H](C)[C@H](C)Nc1cc-3ccc1C(N)=O)CC(C)(C)CC2=O
concentration at 6 h [2]: 967 ng/g
concentration at 24 h [3]: 910 ng/g
AUC(0-inf) [4]: 542 ng·h/mL
concentration at 24 h [5]: 45 ng/mL
concentration at 6 h [6]: 693 ng/g
concentration at 24 h [7]: 6 ng/mL
Tmax [8]: 1 h
concentration at 6 h [9]: 53 ng/mL
solubility ([1]; read-out: solubility): 10 µg/mL (≈ 20.3 µM)
Cmax [10]: 22 ng/mL
Vd [11]: 30 L/kg
AUC(0-inf) [12]: 234 ng·h/mL
concentration at 6 h [13]: 36 ng/mL
concentration at 24 h [14]: 772 ng/g
concentration at 24 h [15]: 242 ng/g
concentration at 6 h [16]: 102 ng/mL
concentration at 24 h [17]: 9 ng/mL
bioavailability [18]: 4%
concentration at 6 h [19]: 309 ng/g

CC[C@H](N)C(=O)N1CCc2c(C)c3c(n2-c2ccc(C(N)=O)c(c2)N[C@@H](C)[C@H](C)C1)CC(C)(C)CC3=O
solubility ([1]; read-out: solubility): > 100 µg/mL

Cc1c2c(n3c1CCN(C(=O)[C@@H](N)C(C)C)C[C@@H](C)[C@H](C)Nc1cc-3ccc1C(N)=O)CC(C)(C)CC2=O
solubility ([1]; read-out: solubility): > 100 µg/mL

Cc1c2c(n3c1CCN(C(=O)C(C)(C)N)C[C@@H](C)[C@H](C)Nc1cc-3ccc1C(N)=O)CC(C)(C)CC2=O
solubility ([1]; read-out: solubility): > 100 µg/mL

Cc1c2c(n3c1CCN(C(=O)C1(N)CC1)C[C@@H](C)[C@H](C)Nc1cc-3ccc1C(N)=O)CC(C)(C)CC2=O
solubility ([1]; read-out: solubility): 7 µg/mL (≈ 13.8 µM)

Cc1c2c(n3c1CCN(C(=O)C1(N)CCCC1)C[C@@H](C)[C@H](C)Nc1cc-3ccc1C(N)=O)CC(C)(C)CC2=O
solubility ([1]; read-out: solubility): 53 µg/mL (≈ 99.3 µM)

Cc1c2c(n3c1CCN(C(=O)[C@@H]1CCCN1)C[C@@H](C)[C@H](C)Nc1cc-3ccc1C(N)=O)CC(C)(C)CC2=O
solubility ([1]; read-out: solubility): > 100 µg/mL

Cc1c2c(n3c1CCN(C(=O)[C@H]1CCCN1)C[C@@H](C)[C@H](C)Nc1cc-3ccc1C(N)=O)CC(C)(C)CC2=O
solubility ([1]; read-out: solubility): > 100 µg/mL

Cc1c2c(n3c1CCN(C(=O)[C@H](C)O)C[C@@H](C)[C@H](C)Nc1cc-3ccc1C(N)=O)CC(C)(C)CC2=O
solubility ([1]; read-out: solubility): 60 µg/mL (≈ 121 µM)

Cc1c2c(n3c1CCN(C(=O)[C@@H](O)C(C)C)C[C@@H](C)[C@H](C)Nc1cc-3ccc1C(N)=O)CC(C)(C)CC2=O
solubility ([1]; read-out: solubility): 30 µg/mL (≈ 57.4 µM)
